Test results as given in the supplement of paper PMC10307832.

Tests used:
Test in all cases: relative viability (nuclei count vs DMSO), 5 days (fraction); higher = more cells survive
BGJ398 + Tozasertib = compound: CCN1CCN(c2ccc(Nc3cc(N(C)C(=O)Nc4c(Cl)c(OC)cc(OC)c4Cl)ncn3)cc2)CC1 [BGJ398] + Cc1cc(Nc2cc(N3CCN(C)CC3)nc(Sc3ccc(NC(=O)C4CC4)cc3)n2)n[nH]1 [Tozasertib] (partner 0.1 µM)
Summary of the method: (§1)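 The day after seeding in 1536-well plates, lung cancer cell lines were treated by pin tool with a single drug, or with a fixed anchor-drug dose together with five library-drug doses (not always all listed) in √10 steps. After 5 days, a combined fix-and-stain solution (final 0.05% Triton X-100, 1% formaldehyde, 1 ug/ml Hoechst) was added. Nuclei counted on 4× images gave relative viability as treated counts over vehicle counts, reported as the median of duplicate plates.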

BGJ398 + Phenformin = compound: CCN1CCN(c2ccc(Nc3cc(N(C)C(=O)Nc4c(Cl)c(OC)cc(OC)c4Cl)ncn3)cc2)CC1 [BGJ398] + N=C(N)NC(=N)NCCc1ccccc1 [Phenformin] (partner 250 µM)
Summary of the method: as §1

BGJ398 + Palbociclib = compound: CCN1CCN(c2ccc(Nc3cc(N(C)C(=O)Nc4c(Cl)c(OC)cc(OC)c4Cl)ncn3)cc2)CC1 [BGJ398] + CC(=O)c1c(C)c2cnc(Nc3ccc(N4CCNCC4)cn3)nc2n(C2CCCC2)c1=O [Palbociclib] (partner 0.5 µM)
Summary of the method: as §1

BGJ398 + Alpelisib = compound: CCN1CCN(c2ccc(Nc3cc(N(C)C(=O)Nc4c(Cl)c(OC)cc(OC)c4Cl)ncn3)cc2)CC1 [BGJ398] + Cc1nc(NC(=O)N2CCC[C@H]2C(N)=O)sc1-c1ccnc(C(C)(C)C(F)(F)F)c1 [Alpelisib] (partner 2 µM)
Summary of the method: as §1

Row | Cell Line | relative viability (BGJ398 + Tozasertib; first compound 0.01 µM) | relative viability (BGJ398 + Tozasertib; first compound 0.03162 µM) | relative viability (BGJ398 + Tozasertib; first compound 0.1 µM) | relative viability (BGJ398 + Tozasertib; first compound 0.3162 µM) | relative viability (BGJ398 + Tozasertib; first compound 1 µM) | relative viability (BGJ398 + Phenformin; first compound 0.01 µM) | relative viability (BGJ398 + Phenformin; first compound 0.03162 µM) | relative viability (BGJ398 + Phenformin; first compound 0.1 µM) | relative viability (BGJ398 + Phenformin; first compound 0.3162 µM) | relative viability (BGJ398 + Phenformin; first compound 1 µM) | relative viability (BGJ398 + Palbociclib; first compound 0.01 µM) | relative viability (BGJ398 + Palbociclib; first compound 0.03162 µM) | relative viability (BGJ398 + Palbociclib; first compound 0.1 µM) | relative viability (BGJ398 + Palbociclib; first compound 0.3162 µM) | relative viability (BGJ398 + Palbociclib; first compound 1 µM) | relative viability (BGJ398 + Alpelisib; first compound 0.01 µM) | relative viability (BGJ398 + Alpelisib; first compound 0.03162 µM) | relative viability (BGJ398 + Alpelisib; first compound 0.1 µM) | relative viability (BGJ398 + Alpelisib; first compound 0.3162 µM) | relative viability (BGJ398 + Alpelisib; first compound 1 µM)
1 | LCLC-97TM1 | 0.239 | 0.224 | 0.293 | 0.23 | 0.35 | 0.393 | 0.446 | 0.442 | 0.429 | 0.44 | 0.177 | 0.221 | 0.262 | 0.197 | 0.267 | 0.233 | 0.269 | 0.231 | 0.214 | 0.265
2 | LCLC-103H | 0.429 | 0.445 | 0.424 | 0.487 | 0.341 | 0.317 | 0.331 | 0.336 | 0.284 | 0.277 | 0.42 | 0.497 | 0.457 | 0.478 | 0.518 | 1.03 | 0.954 | 0.991 | 0.975 | 0.778
3 | LK-2 | 0.202 | 0.168 | 0.157 | 0.149 | 0.173 | 0.268 | 0.295 | 0.255 | 0.18 | 0.271 | 0.638 | 0.862 | 0.489 | 0.336 | 0.191 | 0.813 | 0.936 | 0.557 | 0.381 | 0.311
4 | LOU-NH91 | 0.656 |  | 0.698 | 0.541 | 0.737 | 0.676 |  | 0.712 | 0.455 | 0.474 | 0.555 | 0.544 | 0.553 | 0.559 | 0.536 | 0.727 | 0.531 | 0.717 | 0.491 | 0.697
5 | LU99A | 0.286 | 0.282 | 0.261 | 0.197 | 0.265 | 0.937 | 0.934 | 0.925 | 0.765 | 0.765 | 0.426 | 0.442 | 0.438 | 0.392 | 0.364 | 0.532 | 0.49 | 0.534 | 0.487 | 0.411
6 | LXF-289 | 0.173 | 0.189 | 0.207 | 0.167 | 0.196 | 0.536 | 0.509 | 0.542 | 0.473 | 0.502 | 0.584 | 0.549 | 0.564 | 0.531 | 0.552 | 0.983 | 1.03 | 1.02 | 0.957 | 0.947
7 | NCI-H23 | 0.387 | 0.339 | 0.335 | 0.36 | 0.304 | 0.688 | 0.904 | 0.811 | 0.761 | 0.756 | 0.471 | 0.601 | 0.591 | 0.471 | 0.475 | 0.746 | 0.652 | 0.666 | 0.625 | 0.574
8 | NCI-H322M | 0.479 | 0.462 | 0.461 | 0.525 | 0.521 | 0.791 | 0.663 | 0.774 | 0.696 | 0.845 | 0.493 | 0.43 | 0.472 | 0.491 | 0.521 | 0.772 | 0.741 | 0.851 | 0.761 | 0.813
9 | NCI-H358 | 0.0959 | 0.0952 | 0.109 | 0.102 | 0.1 | 0.29 | 0.296 | 0.395 | 0.317 | 0.462 | 0.139 | 0.145 | 0.133 | 0.13 | 0.145 | 0.881 | 0.893 | 0.857 | 0.97 | 0.937
10 | NCI-H441 | 0.702 | 0.652 | 0.529 | 0.615 | 0.687 | 0.793 | 0.642 | 0.848 | 0.879 | 1.01 |  | 0.186 | 0.213 | 0.25 | 0.183 | 0.775 | 0.707 | 0.644 | 0.73 | 0.593
11 | NCI-H460 | 0.446 | 0.558 | 0.437 | 0.372 | 0.456 | 0.491 | 0.565 | 0.622 | 0.472 | 0.465 | 0.209 | 0.169 | 0.118 | 0.206 | 0.0801 | 0.47 | 0.594 | 0.574 | 0.566 | 0.422
12 | NCI-H520 | 0.424 | 0.421 | 0.321 | 0.273 | 0.271 | 0.532 | 0.481 | 0.379 | 0.189 | 0.242 | 0.216 | 0.19 | 0.147 | 0.142 | 0.161 | 0.888 | 0.886 | 0.506 | 0.414 | 0.243
13 | NCI-H647 | 0.366 | 0.294 | 0.406 | 0.24 | 0.304 | 0.454 | 0.514 | 0.498 | 0.455 | 0.411 | 0.388 | 0.375 | 0.517 | 0.395 | 0.413 | 1.05 | 1.19 | 1.06 | 1.26 | 1.15
14 | NCI-H650 | 0.681 | 0.809 | 0.802 | 0.785 | 0.75 | 0.419 | 0.442 | 0.512 | 0.458 | 0.391 | 0.313 | 0.375 | 0.321 | 0.379 | 0.315 | 1.05 | 1.2 | 1.33 | 1.19 | 1.1
15 | NCI-H661 | 0.325 | 0.369 | 0.365 | 0.354 | 0.362 | 0.286 | 0.316 | 0.295 | 0.302 | 0.291 | 0.422 | 0.406 | 0.384 | 0.4 | 0.398 | 0.594 | 1.08 | 0.715 | 0.526 | 0.614
16 | NCI-H727 | 0.574 | 0.751 | 0.816 | 0.585 | 0.605 | 0.668 | 0.521 | 0.635 | 0.568 | 0.516 | 0.806 | 0.651 | 0.647 | 0.686 | 0.691 | 0.625 | 0.665 | 0.524 | 0.578 | 0.5
17 | NCI-H838 | 0.317 | 0.305 | 0.262 | 0.234 | 0.201 | 0.446 | 0.549 | 0.612 | 0.437 | 0.305 | 0.203 | 0.203 | 0.217 | 0.22 | 0.195 | 0.84 | 0.955 | 0.968 | 0.895 | 0.732
18 | NCI-H1355 | 0.57 | 0.566 | 0.455 | 0.491 | 0.538 | 0.44 | 0.465 | 0.454 | 0.464 | 0.423 | 0.417 | 0.402 | 0.376 | 0.389 | 0.386 | 0.71 | 0.828 | 0.9 | 0.837 | 0.823
19 | NCI-H1395 | 0.739 | 0.789 | 0.72 | 0.624 | 0.511 | 0.436 | 0.433 | 0.368 | 0.393 | 0.373 | 0.603 | 0.587 | 0.464 | 0.458 | 0.481 | 0.982 | 1.02 | 0.994 | 0.719 | 0.604
20 | NCI-H1437 | 0.414 | 0.418 | 0.418 | 0.4 | 0.427 | 0.265 | 0.34 | 0.314 | 0.268 | 0.281 | 0.383 | 0.309 | 0.323 | 0.337 | 0.278 | 0.96 | 0.989 | 0.955 | 0.991 | 0.972
21 | NCI-H1651 | 0.732 | 0.629 | 0.633 | 0.575 | 0.581 | 0.303 | 0.394 | 0.381 | 0.325 | 0.274 | 0.507 | 0.561 | 0.554 | 0.54 | 0.498 | 1.04 | 0.952 | 0.961 | 0.918 | 0.939
22 | NCI-H1666 | 0.702 | 0.619 | 0.606 | 0.587 | 0.558 | 0.55 | 0.609 | 0.622 | 0.581 | 0.557 | 0.659 | 0.631 | 0.666 | 0.641 | 0.638 | 1.01 | 1.08 | 1.01 | 0.922 | 0.909
23 | NCI-H1734 | 0.259 | 0.266 | 0.222 | 0.258 | 0.26 | 0.368 | 0.398 | 0.408 | 0.376 | 0.432 | 0.329 | 0.352 | 0.355 | 0.359 | 0.355 | 0.678 | 0.654 | 0.725 | 0.676 | 0.742
24 | NCI-H1755 | 0.563 | 0.646 | 0.552 | 0.623 | 0.546 | 0.533 | 0.669 | 0.618 | 0.656 | 0.601 | 0.464 | 0.473 | 0.461 | 0.468 | 0.441 | 0.861 | 0.965 | 1.05 | 0.908 | 0.889
25 | NCI-H1793 | 0.337 | 0.351 | 0.3 | 0.3 | 0.287 | 0.361 | 0.351 | 0.387 | 0.334 | 0.293 | 0.321 | 0.271 | 0.286 | 0.237 | 0.309 | 0.676 |  | 0.955 | 0.696 | 0.549
26 | NCI-H1915 | 0.446 | 0.438 | 0.433 | 0.404 | 0.416 | 0.374 | 0.367 | 0.365 | 0.354 | 0.367 | 0.525 | 0.533 | 0.532 | 0.529 | 0.556 | 0.981 | 1.05 | 1.1 | 1.08 | 1.05
27 | NCI-H1944 | 0.237 | 0.244 | 0.229 | 0.27 | 0.273 | 0.198 | 0.195 | 0.237 | 0.188 | 0.177 | 0.29 | 0.333 | 0.347 | 0.337 | 0.344 | 0.689 | 0.816 | 0.899 | 0.805 | 0.845
